According to US9211310B2, “Use of a Chinese medicine composition in preparing medicaments for treating secondary prevention of myocardial infarction” (TASLY PHARMACEUTICAL GROUP CO., LTD, priority 2010, dated 2015):

Test system: patients after acute myocardial infarction
Assay: Life quality, Seattle Angina Questionnaire (SAQ), same clinical trial
Format: in vivo, human
Conditions: PP
Description: 3508 patients who were in accordance with the diagnostic standards of AMI for 28 days to 2 years and differentiated as Qi deficiency and blood stagnation syndrome by TCM were studied. 0.5 g Chinese medicine composition prepared by the method of EXAMPLE 1 (Coded as QSYQ) was administrated half an hour after meal, 3 times per day.
There were 19 questions in the Seattle angina questionnaire (SAQ), including 5 parts: physical limitation (PL), anginal stability (AS), anginal frequency (AF), treatment satisfaction (TS) and disease perception (DP). After being given necessary explanation by doctors, the questions were answered independently by patients.
They included the overall survival time, angina pectoris score, TCM symptom score and life quality score, where angina pectoris score, TCM symptom score and life quality score were evaluated at randomization, in 1st, 3rd, 6th, 9th, 12th month after treatment and 18th month after follow-up.
All evaluation results of SAQ were described during the period of observation, and Wilcoxon rank sum test was used for inter-group comparison.
The evaluation results in the SAQ were depicted in different observations, and inter-group comparison was tested by Wilcoxon Rank-sum test.

Question: For `CC(=O)Oc1ccccc1C(=O)O` [Control group, aspirine], which “SAQ 6th question, Highly consent: % of patients” value (1 month after treatment) is on record?
Answer: (17.86%)

Question: And the “SAQ 6th question, Highly consent: number of patients” value (1 month after treatment)?
Answer: 266

Question: And the “SAQ 6th question, Mostly dissatisfied: % of patients” value (1 month after treatment)?
Answer: (4.37%)

Question: What about the “SAQ 6th question, Mostly dissatisfied: number of patients” value (1 month after treatment) of the same compound?
Answer: 65

Question: What about the “SAQ 6th question, Mostly satisfied: % of patients” value (1 month after treatment) of the same compound?
Answer: (47.88%)

Question: And the “SAQ 6th question, Mostly satisfied: number of patients” value (1 month after treatment)?
Answer: 713

Question: And the “SAQ 6th question, Partly satisfied: % of patients” value (1 month after treatment)?
Answer: (29.68%)

Question: What about the “SAQ 6th question, Partly satisfied: number of patients” value (1 month after treatment) of the same compound?
Answer: 442

Question: What about the “SAQ 7th question, Dissatisfied: % of patients” value (1 month after treatment) of the same compound?
Answer: (0.13%)

Question: And the “SAQ 7th question, Dissatisfied: number of patients” value (1 month after treatment)?
Answer: 2

Question: And the “SAQ 7th question, Highly satisfied: % of patients” value (1 month after treatment)?
Answer: (23.40%)

Question: And the “SAQ 7th question, Highly satisfied: number of patients” value (1 month after treatment)?
Answer: 348

Question: What about the “SAQ 7th question, Mostly dissatisfied: % of patients” value (1 month after treatment) of the same compound?
Answer: (3.36%)

Question: What about the “SAQ 7th question, Mostly dissatisfied: number of patients” value (1 month after treatment) of the same compound?
Answer: 50

Question: What about the “SAQ 7th question, Mostly satisfied: % of patients” value (1 month after treatment) of the same compound?
Answer: (48.69%)

Question: And the “SAQ 7th question, Mostly satisfied: number of patients” value (1 month after treatment)?
Answer: 724

Question: And the “SAQ 7th question, Partly satisfied: % of patients” value (1 month after treatment)?
Answer: (24.41%)

Question: And the “SAQ 7th question, Partly satisfied: number of patients” value (1 month after treatment)?
Answer: 363

Question: And the “SAQ Question 1-1 Mildly limited, number of patients” value (1 month after treatment)?
Answer: 21

Question: And the “SAQ Question 1-1 Mildly limited, percent of patients” value (1 month after treatment)?
Answer: (1.41%)

Question: And the “SAQ Question 1-1 Moderately limited, number of patients” value (1 month after treatment)?
Answer: 9

Question: And the “SAQ Question 1-1 Moderately limited, percent of patients” value (1 month after treatment)?
Answer: (0.60%)

Question: And the “SAQ Question 1-1 Not limited, number of patients” value (1 month after treatment)?
Answer: 1375

Question: And the “SAQ Question 1-1 Not limited, percent of patients” value (1 month after treatment)?
Answer: (92.41%)

Question: And the “SAQ Question 1-1 Other reasons, number of patients” value (1 month after treatment)?
Answer: 2

Question: And the “SAQ Question 1-1 Other reasons, percent of patients” value (1 month after treatment)?
Answer: (0.13%)

Question: What about the “SAQ Question 1-1 Severely limited, number of patients” value (1 month after treatment) of the same compound?
Answer: 1

Question: And the “SAQ Question 1-1 Severely limited, percent of patients” value (1 month after treatment)?
Answer: (0.07%)

Question: What about the “SAQ Question 1-1 Slightly limited, number of patients” value (1 month after treatment) of the same compound?
Answer: 80

Question: And the “SAQ Question 1-1 Slightly limited, percent of patients” value (1 month after treatment)?
Answer: (5.38%)

Question: And the “SAQ Question 1-2 Mildly limited, number of patients” value (1 month after treatment)?
Answer: 30

Question: What about the “SAQ Question 1-2 Mildly limited, percent of patients” value (1 month after treatment) of the same compound?
Answer: (2.02%)

Question: And the “SAQ Question 1-2 Moderately limited, number of patients” value (1 month after treatment)?
Answer: 10

Question: And the “SAQ Question 1-2 Moderately limited, percent of patients” value (1 month after treatment)?
Answer: (0.67%)

Question: What about the “SAQ Question 1-2 Not limited, number of patients” value (1 month after treatment) of the same compound?
Answer: 1345

Question: And the “SAQ Question 1-2 Not limited, percent of patients” value (1 month after treatment)?
Answer: (90.39%)

Question: And the “SAQ Question 1-2 Other reasons, number of patients” value (1 month after treatment)?
Answer: 4

Question: What about the “SAQ Question 1-2 Other reasons, percent of patients” value (1 month after treatment) of the same compound?
Answer: (0.27%)

Question: What about the “SAQ Question 1-2 Severely limited, number of patients” value (1 month after treatment) of the same compound?
Answer: 0

Question: What about the “SAQ Question 1-2 Severely limited, percent of patients” value (1 month after treatment) of the same compound?
Answer: (0.00%)

Question: What about the “SAQ Question 1-2 Slightly limited, number of patients” value (1 month after treatment) of the same compound?
Answer: 99

Question: What about the “SAQ Question 1-2 Slightly limited, percent of patients” value (1 month after treatment) of the same compound?
Answer: (6.65%)

Question: What about the “SAQ Question 1-6: Mildly limited, patients (%)” value (1 month after treatment) of the same compound?
Answer: (18.24%)

Question: What about the “SAQ Question 1-6: Moderately limited, patients (%)” value (1 month after treatment) of the same compound?
Answer: (15.53%)

Question: What about the “SAQ Question 1-6: Not limited, patients (%)” value (1 month after treatment) of the same compound?
Answer: (29.08%)

Question: And the “SAQ Question 1-6: Other reasons, patients (%)” value (1 month after treatment)?
Answer: (0.88%)

Question: What about the “SAQ Question 1-6: Severely limited, patients (%)” value (1 month after treatment) of the same compound?
Answer: (4.75%)

Question: And the “SAQ Question 1-6: Slightly limited, patients (%)” value (1 month after treatment)?
Answer: (31.53%)

Question: What about the “SAQ Question 1-7: Mildly limited, patients (%)” value (1 month after treatment) of the same compound?
Answer: (23.85%)

Question: And the “SAQ Question 1-7: Moderately limited, patients (%)” value (1 month after treatment)?
Answer: (17.55%)

Question: What about the “SAQ Question 1-7: Not limited, patients (%)” value (1 month after treatment) of the same compound?
Answer: (12.34%)

Question: And the “SAQ Question 1-7: Other reasons, patients (%)” value (1 month after treatment)?
Answer: (3.08%)

Question: What about the “SAQ Question 1-7: Severely limited, patients (%)” value (1 month after treatment) of the same compound?
Answer: (17.75%)

Question: And the “SAQ Question 1-7: Slightly limited, patients (%)” value (1 month after treatment)?
Answer: (25.43%)

Question: And the “SAQ Question 1-8: Mildly limited, patients (%)” value (1 month after treatment)?
Answer: (24.83%)

Question: What about the “SAQ Question 1-8: Moderately limited, patients (%)” value (1 month after treatment) of the same compound?
Answer: (20.79%)

Question: And the “SAQ Question 1-8: Not limited, patients (%)” value (1 month after treatment)?
Answer: (8.28%)

Question: What about the “SAQ Question 1-8: Other reasons, patients (%)” value (1 month after treatment) of the same compound?
Answer: (2.87%)

Question: What about the “SAQ Question 1-8: Severely limited, patients (%)” value (1 month after treatment) of the same compound?
Answer: (22.37%)

Question: And the “SAQ Question 1-8: Slightly limited, patients (%)” value (1 month after treatment)?
Answer: (20.86%)

Question: And the “8th question: Dissatisfied, patients (%)” value (3 months after treatment)?
Answer: (0.07%)

Question: And the “8th question: Highly satisfied, patients (%)” value (3 months after treatment)?
Answer: (19.43%)

Question: What about the “8th question: Mostly dissatisfied, patients (%)” value (3 months after treatment) of the same compound?
Answer: (2.85%)

Question: And the “8th question: Mostly satisfied, patients (%)” value (3 months after treatment)?
Answer: (52.31%)

Question: What about the “8th question: Partly satisfied, patients (%)” value (3 months after treatment) of the same compound?
Answer: (25.34%)

Question: And the “9th question: Few, patients (%)” value (3 months after treatment)?
Answer: (31.56%)

Question: And the “9th question: Mild, patients (%)” value (3 months after treatment)?
Answer: (32.99%)

Question: And the “9th question: Moderate, patients (%)” value (3 months after treatment)?
Answer: (15.51%)

Question: What about the “9th question: Severe, patients (%)” value (3 months after treatment) of the same compound?
Answer: (0.95%)

Question: And the “9th question: Uneffective, patients (%)” value (3 months after treatment)?
Answer: (18.98%)

Question: What about the “10th question: Dissatisfied, patients (%)” value (3 months after treatment) of the same compound?
Answer: (20.88%)

Question: And the “10th question: Highly satisfied, patients (%)” value (3 months after treatment)?
Answer: (4.90%)

Question: What about the “10th question: Mostly dissatisfied, patients (%)” value (3 months after treatment) of the same compound?
Answer: (22.38%)

Question: What about the “10th question: Mostly satisfied, patients (%)” value (3 months after treatment) of the same compound?
Answer: (23.47%)

Question: What about the “10th question: Partly satisfied, patients (%)” value (3 months after treatment) of the same compound?
Answer: (28.37%)

Question: What about the “11th question: Continuously worried, patients (%)” value (3 months after treatment) of the same compound?
Answer: (4.62%)

Question: And the “11th question: No worried, patients (%)” value (3 months after treatment)?
Answer: (4.76%)

Question: And the “11th question: Occasionally worried, patients (%)” value (3 months after treatment)?
Answer: (41.47%)
